Assay results published in PubChem BioAssay AID328 (DTP/NCI, 2004).
Where “and” joins values, the source holds several entries; their conditions need not be identical. Equal values may be shown once. Inconclusive results and toxic doses are left out. The calls were made as follows: active = survival T/C of 150% or more; inactive = T/C below 125% in these data.

System: BDF1 mice, P388 leukemia ip, median survival T/C
Assay: NCI In Vivo Anticancer Drug Screen. Data for tumor model P388 Leukemia (intraperitoneal) in B6D2F1 (BDF1) mice
Conditions: endpoint: median survival time, higher = longer survival
Summary of the method: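 Steps: implant the tumour, treat one group with compound and another with vehicle, record survival, then divide treated by control.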

[1] = dose: 50.0 mg/kg/injection, schedule: Q01DX005 (ip), vehicle: saline with Tween-80
[2] = dose: 100.0 mg/kg/injection, schedule: Q01DX005 (ip), vehicle: saline with Tween-80
[3] = dose: 200.0 mg/kg/injection, schedule: Q01DX005 (ip), vehicle: saline with Tween-80
[4] = dose: 50.0 mg/kg/injection, schedule: Q01DX009 (ip), vehicle: saline with Tween-80
[5] = dose: 100.0 mg/kg/injection, schedule: Q01DX009 (ip), vehicle: saline with Tween-80
[6] = dose: 200.0 mg/kg/injection, schedule: Q01DX009 (ip), vehicle: saline with Tween-80
[7] = dose: 100.0 mg/kg/injection, schedule: Q04DX003 (ip), vehicle: saline with Tween-80
[8] = dose: 200.0 mg/kg/injection, schedule: Q04DX003 (ip), vehicle: saline with Tween-80
[9] = dose: 400.0 mg/kg/injection, schedule: Q04DX003 (ip), vehicle: saline with Tween-80
[10] = dose: 100.0 mg/kg/injection, schedule: Q01DX009 (ip), vehicle: Klucel (hydroxypropylcellulose) (HPC)
[11] = dose: 100.0 mg/kg/injection, schedule: Q04DX003 (ip), vehicle: Klucel (hydroxypropylcellulose) (HPC)
[12] = dose: 200.0 mg/kg/injection, schedule: Q01DX009 (ip), vehicle: Klucel (hydroxypropylcellulose) (HPC)
[13] = dose: 200.0 mg/kg/injection, schedule: Q04DX003 (ip), vehicle: Klucel (hydroxypropylcellulose) (HPC)
[14] = dose: 400.0 mg/kg/injection, schedule: Q04DX003 (ip), vehicle: Klucel (hydroxypropylcellulose) (HPC)
[15] = dose: 6.25 mg/kg/injection, schedule: Q01DX009 (ip), vehicle: saline
[16] = dose: 25.0 mg/kg/injection, schedule: Q01DX009 (ip), vehicle: Klucel (hydroxypropylcellulose) (HPC)
[17] = dose: 25.0 mg/kg/injection, schedule: Q01DX009 (ip), vehicle: saline
[18] = dose: 12.5 mg/kg/injection, schedule: Q01DX009 (ip), vehicle: saline
[19] = dose: 50.0 mg/kg/injection, schedule: Q01DX009 (ip), vehicle: saline

Measured: T/C

CCSc1c(S)cnn(C)c1=O
inactive: [1] 90 % of control | [2] 90 % of control | [3] 97 % of control

CCOC1=NCCCCCCC1
inactive: [4] 98 % of control | [5] 97 % of control | [6] 99 % of control

c1ccc2c3csc4ccccc4c-3nc2c1
inactive: dose: 1.56 mg/kg/injection, schedule: Q04DX003 (ip), vehicle: Klucel (hydroxypropylcellulose) (HPC) 95 % of control | dose: 3.12 mg/kg/injection, schedule: Q04DX003 (ip), vehicle: Klucel (hydroxypropylcellulose) (HPC) 95 % of control | dose: 5.7 mg/kg/injection, schedule: Q01DX009 (ip), vehicle: Klucel (hydroxypropylcellulose) (HPC) 92 % of control and 113 % of control | dose: 6.25 mg/kg/injection, schedule: Q04DX003 (ip), vehicle: Klucel (hydroxypropylcellulose) (HPC) 104 % of control | dose: 8.75 mg/kg/injection, schedule: Q01DX009 (ip), vehicle: Klucel (hydroxypropylcellulose) (HPC) 88 % of control and 118 % of control | dose: 12.5 mg/kg/injection, schedule: Q04DX003 (ip), vehicle: Klucel (hydroxypropylcellulose) (HPC) 104 % of control | dose: 13.0 mg/kg/injection, schedule: Q01DX009 (ip), vehicle: Klucel (hydroxypropylcellulose) (HPC) 92 % of control and 113 % of control

CN(C)c1ccc(C=Nc2c(N)n(C)c(=O)n(C)c2=O)cc1
inactive: [7] 101 % of control | [8] 92 % of control | [9] 93 % of control

C=CC(O)CN1CC1 (stereo unspecified)
active: dose: 10.0 mg/kg/injection, schedule: Q04DX003 (ip), vehicle: saline 191 % of control

Clc1ccc(N=Cc2ccccc2)cc1
inactive: [10] 90 % of control | [11] 108 % of control | [12] 90 % of control | [13] 95 % of control | [14] 100 % of control

CC(=O)OCCC/C(=C/c1cc2ccccc2c2ccccc12)[N+](=O)[O-]
inactive: [10] 115 % of control | [12] 120 % of control

Cc1cccc2cc3cccc[n+]3cc12
inactive: dose: 1.56 mg/kg/injection, schedule: Q01DX009 (ip), vehicle: saline 104 % of control | dose: 3.12 mg/kg/injection, schedule: Q01DX009 (ip), vehicle: saline 104 % of control | [15] 109 % of control | dose: 6.75 mg/kg/injection, schedule: Q04DX003 (ip), vehicle: saline 105 % of control | dose: 9.2 mg/kg/injection, schedule: Q01DX009 (ip), vehicle: saline 109 % of control | dose: 13.5 mg/kg/injection, schedule: Q04DX003 (ip), vehicle: saline 90 % of control

Clc1ccc(C[P+](c2ccccc2)(c2ccccc2)c2ccccc2)cc1Cl
inactive: dose: 0.45 mg/kg/injection, schedule: Q01DX009 (ip), vehicle: saline 104 % of control | dose: 0.9 mg/kg/injection, schedule: Q01DX009 (ip), vehicle: saline 100 % of control | dose: 1.35 mg/kg/injection, schedule: Q01DX001 (ip), vehicle: saline 100 % of control | dose: 1.8 mg/kg/injection, schedule: Q01DX009 (ip), vehicle: saline 91 % of control | dose: 2.7 mg/kg/injection, schedule: Q01DX001 (ip), vehicle: saline 95 % of control | dose: 3.6 mg/kg/injection, schedule: Q01DX009 (ip), vehicle: saline 108 % of control

CCn1cnc2c(SC3CCCC3)ncnc21
inactive: dose: 100.0 mg/kg/injection, schedule: Q04DX003 (ip), vehicle: saline sonified 100 % of control | dose: 200.0 mg/kg/injection, schedule: Q04DX003 (ip), vehicle: saline sonified 100 % of control | dose: 400.0 mg/kg/injection, schedule: Q04DX003 (ip), vehicle: saline sonified 100 % of control

C(=NC(c1ccccc1)(c1ccccc1)c1ccccc1)=NC(c1ccccc1)(c1ccccc1)c1ccccc1
inactive: dose: 12.5 mg/kg/injection, schedule: Q01DX009 (ip), vehicle: gum acacia 87 % of control | dose: 25.0 mg/kg/injection, schedule: Q01DX009 (ip), vehicle: gum acacia 100 % of control | dose: 50.0 mg/kg/injection, schedule: Q01DX009 (ip), vehicle: gum acacia 95 % of control | dose: 100.0 mg/kg/injection, schedule: Q01DX009 (ip), vehicle: gum acacia 88 % of control | dose: 100.0 mg/kg/injection, schedule: Q04DX003 (ip), vehicle: gum acacia 100 % of control | dose: 200.0 mg/kg/injection, schedule: Q01DX009 (ip), vehicle: gum acacia 88 % of control | dose: 200.0 mg/kg/injection, schedule: Q04DX003 (ip), vehicle: gum acacia 91 % of control

CCOC(=O)CNC(=O)Sc1ccc(C(C)(C)C)cc1
inactive: [16] 121 % of control | [12] 108 % of control

NCC(=O)O.[Cl][Ga]([Cl])[Cl]
inactive: [17] 120 % of control

FC(F)(F)c1cc(CN(CCCl)CCCl)cc(C(F)(F)F)c1
inactive: dose: 12.5 mg/kg/injection, schedule: Q01DX009 (ip), vehicle: Klucel (hydroxypropylcellulose) (HPC) 101 % of control | dose: 12.5 mg/kg/injection, schedule: Q01DX009 (ip), vehicle: other 116 % of control | [18] 100 % of control | [16] 108 % of control and 120 % of control
active: [17] 188 % of control | dose: 50.0 mg/kg/injection, schedule: Q01DX009 (ip), vehicle: other 150 % of control | [19] 172 % of control | [10] 153 % of control and 165 % of control | dose: 100.0 mg/kg/injection, schedule: Q01DX009 (ip), vehicle: saline 194 % of control

Cc1cc(N(CCCl)CCCl)ccc1C=Nc1ccccc1-c1ccccc1
active: dose: 400.0 mg/kg/injection, schedule: Q01DX009 (ip), vehicle: Klucel (hydroxypropylcellulose) (HPC) 150 % of control and 158 % of control | dose: 600.0 mg/kg/injection, schedule: Q01DX009 (ip), vehicle: Klucel (hydroxypropylcellulose) (HPC) 200 % of control | dose: 600.0 mg/kg/injection, schedule: Q04DX003 (ip), vehicle: Klucel (hydroxypropylcellulose) (HPC) 154 % of control
inactive: [10] 120 % of control | [11] 112 % of control | [13] 116 % of control | dose: 266.0 mg/kg/injection, schedule: Q04DX003 (ip), vehicle: Klucel (hydroxypropylcellulose) (HPC) 120 % of control | [14] 95 % of control

CCCCCCCCCCCS(=O)(=O)C(CCOS(C)(=O)=O)COS(C)(=O)=O (stereo unspecified)
inactive: [11] 95 % of control | [13] 100 % of control | [14] 100 % of control

NC(=O)n1cccn1
inactive: dose: 30.0 mg/kg/injection, schedule: Q01DX010 (ip), vehicle: saline 100 % of control | dose: 50.0 mg/kg/injection, schedule: Q01DX010 (ip), vehicle: other 104 % of control | dose: 60.0 mg/kg/injection, schedule: Q01DX010 (ip), vehicle: saline 100 % of control | dose: 100.0 mg/kg/injection, schedule: Q01DX010 (ip), vehicle: other 100 % of control | dose: 120.0 mg/kg/injection, schedule: Q01DX010 (ip), vehicle: saline 109 % of control | dose: 240.0 mg/kg/injection, schedule: Q01DX010 (ip), vehicle: saline 122 % of control

CN(C)c1ccc(/C=C2\SC(=S)N(Cc3ccco3)C2=O)cc1
inactive: [4] 92 % of control | [5] 91 % of control | [6] 88 % of control

COc1ccc(Cl)cc1NC(=O)NNC(=O)C(=O)Nc1ccc(F)cc1
inactive: [1] 91 % of control | [2] 91 % of control | [3] 100 % of control

CN(C)CCC(=O)c1ccccc1
inactive: [17] 100 % of control

c1ccc2c(c1)C1CCC2c2ccccc21
inactive: dose: 50.0 mg/kg/injection, schedule: Q04DX003 (ip), vehicle: saline with Tween-80 100 % of control | [7] 100 % of control | [8] 88 % of control and 100 % of control | [9] 100 % of control

O=C(Nc1ccc(Cl)c(Cl)c1)Nc1c(Oc2ccc(Cl)c(Cl)c2)ccc(Cl)c1S(=O)(=O)O
inactive: [15] 118 % of control | [18] 109 % of control | [17] 104 % of control | dose: 35.0 mg/kg/injection, schedule: Q01DX009 (ip), vehicle: saline 118 % of control | [19] 105 % of control | dose: 55.0 mg/kg/injection, schedule: Q01DX009 (ip), vehicle: saline 113 % of control | dose: 80.0 mg/kg/injection, schedule: Q01DX009 (ip), vehicle: saline 111 % of control

CCOP(=S)(OCC)Oc1cnn(C)c(=S)c1Cl
inactive: [1] 98 % of control | [2] 101 % of control | [3] 108 % of control
